Entries after “also recorded” stand apart in the source; their conditions may differ.
How the values were obtained:
[1] = test system: DGAT; assay: Assay for inhibitory effect on DGAT in cell (triglyceride production from [14C]acetate in HepG2 cells); format: cell-based, human; details: 10 μM; for Production Yield of Triglyceride (%): DMSO control taken as 100
Description: The effect of the indole derivatives of the present invention on DGAT was examined with HepG2 cells, hepatic cells derived from the human liver, as follows.
HepG2 cells, purchased from ATCC, were cultured in MEM (Minimum Essential Medium, 2 mM L-glutamine, Earle's BSS adjusted to contain 1.5 g/L sodium bicarbonate, 0.1 mM nonessential amino acids, and 1 mM sodium pyruvate), supplemented with 10% fetal bovine serum (FBS) and 1% antibiotics (100 U/ml penicillin and 100 µg/ml streptomycin) at 37° C. in a 5% CO2 incubator.
Intracellular DGAT activity was represented by the amount of triglycerides produced in the cultured HepG2 cells while the compounds (1, 6, 10, 11 and 15) of Chemical Formula 1 were assayed for inhibitory activity against DGAT by measuring the change in intracellular triglyceride production after the addition thereof.
Cells were plated at a density of 1×10^6 cell/ml per well into 24-well plates and incubated for 24 hours. Then, the medium was exchanged with FBS-free MEM. Thereafter, 0.2 mCi of [^14C]acetate (Amersham) was added as a substrate to the cells, followed by incubation for 18 hours. The production of triglycerides was catalyzed by DGAT so that DGAT activity was determined by the amount of the triglyceride product, which could be measured using radioactivity. For use, the samples were dissolved in dimethyl sulfoxide (DMSO). In a control, triglycerides were synthesized using DMSO without any sample, with the production yield thereof taken as 100.
The amount of the triglyceride products synthesized was determined as follows. […] 1 ml of the extract was concentrated with nitrogen gas. The total lipid residue thus formed was dissolved in an organic solvent mixture (chloroform:methanol=2:1) and loaded dropwise onto a thin layer chromatography plate (TLC; silica gel 60F254, 0.5 mm, Merck) using a mixture of 80:20:1 hexane:diethylether:acetic acid (v:v:v) as a developing solvent. After the separation of triglycerides (Rf value: 0.4) on TLC, the plate was brought into contact with an autoradiographic film for three hours, followed by image analysis (BAS-1500, Fuji Photo Film Co. Ltd.) to determine the [^14C] radioactivity of the triglycerides. The cells left after the extraction were suspended in 0.3 ml of a 0.1 N sodium hydroxide solution to measure the cellular protein concentration thereof.
The empirical values were obtained by dividing triglyceride radioactivity by protein level, with correction for experimental errors between test groups.

[2] = test system: DGAT; assay: Assay for inhibitory activity against DGAT ([14C]triacylglycerol formation, rat microsomal protein as enzyme source); format: biochemical; details: for DGAT (inhibition % in 5 μM) / DGAT (inhibition % in 25 μM): rat microsomal protein as enzyme source; for inhibitory activity against DGAT (in words): rat hepatic microsomal protein, 1,2-diacylglycerol and [14C]palmitoyl-CoA as substrates
Description: The following experiment was performed in order to examine the inhibitory activity of the indole derivatives of the present invention against DGAT. After enzymatic reaction between two substrates, 1,2-diacylglycerol (Sigma, D0138) and [^14C]palmitoyl-CoA (Amersham, CFA583), with the microsomal protein of rats serving as an enzyme source in accordance with Coleman et al, Methods Enzymol., 98-103, 1992, the resulting product [^14C] triacylglycerol was measured for radioactivity.
In detail, to a reaction buffer (175 mM Tris-HCl, pH 8.0, 20 μl bovine serum albumin (10 mg/ml), 100 mM MgCl2, 30 μM [^14C] palmitoyl-CoA (0.02 μCi, Amersham) and 200 μM 1,2-dioleoyl glycerol) was added 10 μl of a solution of the samples in dimethylsulfoxide (DMSO) and then 100-200 μl of an isolated microsomal protein, followed by reaction at 25° C. for 10 min. The reaction was terminated with 1.5 ml of a mixture of 80:20:2 2-propanol:heptane:water (v:v:v). Thereafter, the [^14C] triacylglycerol thus formed was separated. In this regard, 1 ml of heptane and 0.5 ml of distilled water were added to the reaction mixture, which was then shaken. 1 ml of the supernatant thus formed was mixed with 2 ml of an alkaline ethanol solution (ethanol:0.5 N sodium hydroxide:water=50:10:40, v:v:v), followed by shaking. After it was recovered, 0.65 ml of the supernatant thus formed was measured for radioactivity using an LSC (liquid scintillation counter). The inhibitory activity against DGAT was calculated according to the following Mathematical Formula 1.
T: Cpm of a test group in which a sample was added to an enzymatic buffer,
C: Cpm of a control in which no samples were added to an enzymatic buffer,
B: Cpm of a control in which a sample was added in the absence of any enzyme source.

[3] = test system: SPF ICR mice; assay: Single-dose oral acute toxicity, SPF ICR mice; format: in vivo, mouse
Description: In addition, the compounds of the present invention were orally administered once at a dose of as high as 2,000 mg/kg into mice. In this regard, 7-week-old male SPF ICR mice (Dae Han Biolink Co. Ltd.) were acclimated to a new environment for one week and then, at 8 weeks of age, were divided into two groups of three. The test group was orally administered once with a dose of 2 g/kg of Compound 10 in a 0.5% CMC solution, while the control was administered with a 0.5% CMC (carboxymethyl cellulose) solution alone. They were monitored for death, clinical signs, change in body weight and the like for a couple of weeks. Autopsies were performed to examine the abnormality of organs.

Row | Compound | biosynthesis of triglyceride in comparison with the control (in words) [1] | Production Yield of Triglyceride (%) [1] [%] | DGAT (inhibition % in 5 μM) [2] [%] | DGAT (inhibition % in 25 μM) [2] [%] | other results
1 | CC(C)(C)OC(=O)n1cc(/C=C/C(=O)Nc2cccc(C(=O)NCc3ccco3)c2)c2ccccc21 [Compound 10, 3-(2-3-[(Furan-2-ylMethyl)-Carbamoyl]-Phenylcarbamoyl-Vinyl)-Indole-1-Carboxylic Acid-t-Butyl Ester] | produced smaller amounts of triglycerides than did the control; also recorded: highly inhibit the biosynthesis of triglyceride | 49.2 ± 5.7 | 60.22 | 78.68 | inhibition of the biosynthesis of triglycerides [1]: 50.8%; inhibitory activity against DGAT (in words) [2]: potent inhibitory activity against DGAT in a dose-dependent manner; oral acute toxicity (in words) ([3]; administered once at a dose of up to 2,000 mg/kg): no oral acute toxicity; Mortality (No. of Dead/No of Tested) ([3]; single oral dose 2 g/kg in 0.5% CMC, monitored two weeks): 0/3; Body Weight (g) Day 0 ([3]; single oral dose 2 g/kg, Day 0, Mean ± SD): 36 ± 0.5 g; Body Weight (g) Day 1 ([3]; single oral dose 2 g/kg, Day 1, Mean ± SD): 38 ± 1.0 g; Body Weight (g) Day 3 ([3]; single oral dose 2 g/kg, Day 3, Mean ± SD): 38 ± 0.2 g; Body Weight (g) Day 7 ([3]; single oral dose 2 g/kg, Day 7, Mean ± SD): 39 ± 1.2 g; Body Weight (g) Day 14 ([3]; single oral dose 2 g/kg, Day 14, Mean ± SD): 42 ± 2.0 g
2 | O=C(/C=C/c1cn(S(=O)(=O)Cc2ccccc2)c2ccccc12)Nc1cccc(C(=O)NCc2ccco2)c1 [Compound 14] |  |  | 43.19 | 50.89 | inhibitory activity against DGAT (in words) [2]: potent inhibitory activity against DGAT in a dose-dependent manner
3 | COC(=O)c1cccc(NC(=O)/C=C/c2c[nH]c3ccccc23)c1 [Compound 4, 3-(3-1H-indol-3-yl-acryloylamino)-benzoic Acid Methyl Ester] |  |  |  | 18.72 | 
4 | O=C(/C=C/c1cn(S(=O)(=O)c2cccs2)c2ccccc12)Nc1cccc(C(=O)NCc2ccco2)c1 [Compound 15, N-furan-2-ylmethyl-3-[3-[1-(thiophene-2-sulfonyl)-1H-indol-3-yl]-acryloylamino]-benzamide] | produced smaller amounts of triglycerides than did the control; also recorded: highly inhibit the biosynthesis of triglyceride | 61.5 ± 7.1 | 40.88 | 49.88 | inhibition of the biosynthesis of triglycerides [1]: 38.5%; inhibitory activity against DGAT (in words) [2]: potent inhibitory activity against DGAT in a dose-dependent manner
5 | CC(C)(C)OC(=O)Cn1cc(/C=C/C(=O)Nc2cccc(C(=O)NCc3ccco3)c2)c2ccccc21 [Compound 13, [3-(2-{3-[(Furan-2-ylmethyl)-carbamoyl]-phenylcarbamoyl}-vinyl)-indol-1-yl]-acetic acid-t-butyl Ester] |  |  | −0.95 | 53.15 | 
6 | O=C(/C=C/c1c[nH]c2ccccc12)Nc1cccc(C(=O)NCCCN2CCOCC2)c1 [Compound 8, 3-(3-1H-indol-3-yl-acryloylamino)-N-(3-morpholin-4-yl-propyl)-benzamide] |  |  | 3.06 | 2.05 | 
7 | O=C(/C=C/c1c[nH]c2ccccc12)Nc1cccc(C(=O)O)c1 [Compound 6, 3-(3-1H-indol-3-yl-acryloylamino)-benzoic Acid] | produced smaller amounts of triglycerides than did the control | 92.5 ± 6.7 |  | 11.52 | 
8 | O=C(/C=C/c1c[nH]c2ccccc12)Nc1cccc(C(=O)NCc2ccco2)c1 [Compound 9, N-furan-2-ylmethyl-3-(3-1H-indol-3-yl-acryloylamino)-benzamide] |  |  | 2.72 | 13.24 | 
9 | CN(C)CCn1cc(/C=C/C(=O)Nc2cccc(C(=O)NCc3ccco3)c2)c2ccccc21 [Compound 12, 3-{3[1-(2-Dimethylamino-ethyl)-1H-indol-3-yl]-acryloylamino}-N-furan-2-ylmethyl-benzamide] |  |  | −11.04 | −0.38 | 
10 | O=C(/C=C/c1c[nH]c2ccccc12)Nc1cccc(C(=O)NCCN2CCCCC2)c1 [Compound 7, 3-(3-1H-indol-3-yl-acryloylamino)-N-(2-piperidin-1-yl-ethyl)-benzamide] |  |  | −5.29 | −3.11 | 
11 | O=C(CCc1c[nH]c2ccccc12)Nc1cccc(C(=O)O)c1 [Compound 5, 3-(3-1H-indol-3-yl-propionylamino)-benzoic Acid] |  |  |  | 0.08 | 
12 | NC(=O)c1cccc(NC(=O)CCc2c[nH]c3ccccc23)c1 [Compound 1, 3-(3-1H-indol-3-yl-propionylamino)-benzamide] | produced smaller amounts of triglycerides than did the control | 95.5 ± 5.7 |  | 4.66 | 
13 | CC(=O)n1cc(/C=C/C(=O)Nc2cccc(C(=O)NCc3ccco3)c2)c2ccccc21 [Compound 16, 3-[3-(1-Acetyl-1H-indol-3-yl)-acryloylamino]-N-furan-2-ylmethyl-benzamide] |  |  | −10.09 | 39.82 | 
14 | NC(=O)c1cccc(NC(=O)/C=C/c2c[nH]c3ccccc23)c1 [Compound 2, 3-(3-1H-indol-3-yl-acryloylamino)-benzamide] |  |  |  | 19.36 | 
15 | O=C(/C=C/c1cn(Cc2ccccc2)c2ccccc12)Nc1cccc(C(=O)NCc2ccco2)c1 [Compound 11, 3-[3-(1-Benzyl-1H-indol-3-yl)-acryloylamino]-N-furan-2-ylmethyl-benzamide] | produced smaller amounts of triglycerides than did the control; also recorded: highly inhibit the biosynthesis of triglyceride | 55.5 ± 7.2 | 54.09 | 64.13 | inhibition of the biosynthesis of triglycerides [1]: 44.5%; inhibitory activity against DGAT (in words) [2]: potent inhibitory activity against DGAT in a dose-dependent manner
